Experimental data: patent publication US8865734B2 (priority 2010, dated 2014)
In brackets after ≈: the same amount, converted by molar mass.

Tested on: multi-drug resistant (MDR) clinical isolates
Assay: microbe, parasite or virus in culture
Format: cell-based, M. tuberculosis
Settings: for level of activity relative to MFX: MDR isolates and H37Rv; for MIC / MIC80: Mycobacterium tuberculosis

Row | SMILES | level of activity relative to MFX | MIC [µM] | MIC80 (MDR isolate #13) [µM] | MIC80 (MDR isolate #33) [µM] | MIC80 (MDR isolate #48) [µM] | MIC80 (MDR isolate #61) [µM] | MIC80 (MDR isolate #80) [µM] | MIC80 (MDR isolate #125) [µM] | MIC80 (MDR isolate #137) [µM] | MIC80 (MDR isolate #143) [µM] | MIC80 (MDR isolate #146) [µM] | MIC80 (MDR isolate #171) [µM] | resistance of the MDR strains (all MDR tested strains)
1 | CCc1nc2ccccn2c1C(=O)NCc1ccc(-c2ccccc2)cc1 [Compound 47, N-(Biphenyl-4-ylmethyl)-2-ethylimidazo[1,2-a]pyridine-3-carboxamide] | comparable to or better than MFX | ≤ 1.25 | 0.312 (≈ 0.111 µg/mL) | 0.312 (≈ 0.111 µg/mL) | 0.312 (≈ 0.111 µg/mL) | 0.312 (≈ 0.111 µg/mL) | 0.312 (≈ 0.111 µg/mL) | 0.625 (≈ 0.222 µg/mL) | 1.25 (≈ 0.444 µg/mL) | 1.25 (≈ 0.444 µg/mL) | 0.156 (≈ 0.0555 µg/mL) | 1.25 (≈ 0.444 µg/mL) | –
2 | CCc1nc2ccccn2c1C(=O)NCc1ccc(Oc2ccccc2)cc1 [Compound 54, 2-Ethyl-N-(4-phenoxybenzyl)imidazo[1,2-a]pyridine-3-carboxamide] | comparable to or better than MFX | ≤ 0.625 | 0.156 (≈ 0.058 µg/mL) | 0.156 (≈ 0.058 µg/mL) | 0.156 (≈ 0.058 µg/mL) | 0.156 (≈ 0.058 µg/mL) | 0.156 (≈ 0.058 µg/mL) | 0.312 (≈ 0.116 µg/mL) | 0.625 (≈ 0.232 µg/mL) | 0.312 (≈ 0.116 µg/mL) | 0.312 (≈ 0.116 µg/mL) | 0.312 (≈ 0.116 µg/mL) | –
3 | NNC(=O)c1ccncc1 [INH, Isoniazid, reference compound] | – | – | 5 (≈ 0.686 µg/mL) | 10 (≈ 1.37 µg/mL) | 10 (≈ 1.37 µg/mL) | 20 (≈ 2.74 µg/mL) | 5 (≈ 0.686 µg/mL) | 10 (≈ 1.37 µg/mL) | 20 (≈ 2.74 µg/mL) | 10 (≈ 1.37 µg/mL) | 20 (≈ 2.74 µg/mL) | 5 (≈ 0.686 µg/mL) | resistance was confirmed
